Target: BRD4 (Homo sapiens, UniProt O60885)
Assay: Time resolved fluorescence resonance energy transfer (TR-FRET) binding assay, bromodomain BRD4
Conditions: one of the FRET assays described; read-out: FRET BRD4 IC50

`Cc1nnn(C)c1-c1cnc2c3c(=O)[nH]c(Cl)cc3n(C(c3ncccc3F)C3CCOCC3)c2c1` (stereo not drawn) [Example 307, 11-Chloro-8-[(3-fluoropyridin-2-yl)(oxan-4-yl)methyl]-5-[4-(^2H3)methyl-1-methyl-1H-1,2,3-triazol-5-yl]-3,8,12-triazatricyclo[7.4.0.0^2,^7]trideca-1(9),2(7),3,5,10-pentaen-13-one] was tested, and the IC50 was < 10 nM.

`Cc1nnn(C)c1-c1cnc2c3ccc([S+](C)[O-])nc3n([C@H](c3ccccc3)C3CCOCC3)c2c1` (stereo partly drawn) [Example 200, 5-(Dimethyl-1H-1,2,3-triazol-5-yl)-11-methanesulfinyl-8-[(S)-oxan-4-yl(phenyl)methyl]-3,8,10-triazatricyclo[7.4.0.0^2,^7]trideca-1(9),2(7),3,5,10,12-hexaene] was tested, and the IC50 was < 10 nM.

For `COc1nccc2c3ncc(-c4c(C)nnn4C)cc3n(C(c3cc(F)ccc3F)C3CCOCC3)c12` (racemic) [Example 26, 8-[(2,5-Difluorophenyl)(oxan-4-yl)methyl]-5-(dimethyl-1H-1,2,3-triazol-5-yl)-10-methoxy-3,8,11-triazatricyclo[7.4.0.0^2,^7]trideca-1(13),2(7),3,5,9,11-hexaene], the IC50 was < 10 nM.

`Cc1nnn(C)c1-c1cnc2c3ccnc(N4CCN(C)CC4)c3n([C@H](c3ccccc3)C3CCOCC3)c2c1` [Example 8, 5-(Dimethyl-1H-1,2,3-triazol-5-yl)-10-(4-methylpiperazin-1-yl)-8-[(S)-oxan-4-yl(phenyl)methyl]-3,8,11-triazatricyclo[7.4.0.0^2,^7]trideca-1(13),2(7),3,5,9,11-hexaene] was tested, and the IC50 was < 10 nM.

`[2H]C([2H])([2H])c1nnn(C)c1-c1cnc2c3c(OCC4CCCO4)ncc(S(C)(=O)=O)c3n([C@H](c3ccccc3)C3CCOCC3)c2c1` (stereo partly drawn) [Example 109, 10-Methanesulfonyl-5-[4-(^2H3)methyl-1-methyl-1H-1,2,3-triazol-5-yl]-8-[(S)-oxan-4-yl(phenyl)methyl]-13-[(2R)-oxolan-2-ylmethoxy]-3,8,12-triazatricyclo[7.4.0.0^2,^7]trideca-1(13),2(7),3,5,9,11-hexaene] was tested, and the IC50 was < 10 nM.

In the case of `[2H]C([2H])([2H])c1onc(C)c1-c1cnc2c3c(OC)ncc(S(C)(=O)=O)c3n([C@H](c3ccccc3)C3CCOCC3)c2c1` [Example 60, 10-Methanesulfonyl-13-methoxy-5-[5-(^2H3)methyl-3-methyl-1,2-oxazol-4-yl]-8-[(S)-oxan-4-yl(phenyl)methyl]-3,8,12-triazatricyclo[7.4.0.0^2,^7]trideca-1(13),2(7),3,5,9,11-hexaene], the IC50 is reported as < 1 nM.

With `[2H]C([2H])([2H])c1nnn(C)c1-c1nc2c(cc1F)c1ncc(C(C)(C)O)cc1n2[C@H](c1ccccc1)C1CCOCC1` [Example 361, 2-{12-Fluoro-11-[4-(^2H3)methyl-1-methyl-1H-1,2,3-triazol-5-yl]-8-[(S)-oxan-4-yl(phenyl)methyl]-3,8,10-triazatricyclo[7.4.0.0^2,^7]trideca-1(9),2(7),3,5,10,12-hexaen-5-yl}propan-2-ol] the IC50 was < 10 nM.

In the case of `[2H]C([2H])([2H])c1nnn(C)c1-c1cnc2c3c(C(C)=O)cncc3n([C@H](c3ccccc3)C3CCOCC3)c2c1` [Example 297, 1-{5-[4-(^2H3)Methyl-1-methyl-1H-1,2,3-triazol-5-yl]-8-[(S)-oxan-4-yl(phenyl)methyl]-3,8,11-triazatricyclo[7.4.0.0^2,^7]trideca-1(9),2(7),3,5,10,12-hexaen-13-yl}ethan-1-one], the IC50 is reported as < 10 nM.

For `[2H]C([2H])([2H])c1nnn(C)c1-c1cnc2c3c(OC4COC4)ncc(S(C)(=O)=O)c3n([C@H](c3ccccc3)C3CCOCC3)c2c1` [Example 111, 10-Methanesulfonyl-5-[4-(^2H3)methyl-1-methyl-1H-1,2,3-triazol-5-yl]-8-[(S)-oxan-4-yl(phenyl)methyl]-13-(oxetan-3-yloxy)-3,8,12-triazatricyclo[7.4.0.0^2,^7]trideca-1(13),2(7),3,5,9,11-hexaene], the IC50 was < 10 nM.

`Cc1nnn(C)c1-c1cnc2c3cnc(Cl)cc3n(C(c3ncccc3F)C3CCOCC3)c2c1` (single isomer, unassigned) [Example 317] was tested, and the IC50 was < 1500 nM.

With `Cc1nnn(C)c1-c1cnc2c3ccc(-c4cnn(C5CC5)c4)nc3n([C@H](c3ccccc3)C3CCOCC3)c2c1` [Example 150, 11-(1-Cyclopropyl-1H-pyrazol-4-yl)-5-(dimethyl-1H-1,2,3-triazol-5-yl)-8-[(S)-oxan-4-yl(phenyl)methyl]-3,8,10-triazatricyclo[7.4.0.0^2,^7]trideca-1(13),2(7),3,5,9,11-hexaene] the IC50 was < 1 nM.

For `COc1nccc2c3ncc(-c4c(C)nnn4C)cc3n(C(c3cccc(F)c3)C3CCOCC3)c12` (single isomer, unassigned) [Example 21, 5-(Dimethyl-1H-1,2,3-triazol-5-yl)-8-[(3-fluorophenyl)(oxan-4-yl)methyl]-10-methoxy-3,8,11-triazatricyclo[7.4.0.0^2,^7]trideca-1(13),2(7),3,5,9,11-hexaene], the IC50 was < 1500 nM.

With `[2H]C([2H])([2H])c1nnn(C)c1-c1cnc2c3c(OC)ncc(S(C)(=O)=O)c3n(C(c3cccc(F)c3)C3CCOCC3)c2c1` (single isomer, unassigned) [Example 87, 8-[(3-Fluorophenyl)(oxan-4-yl)methyl]-10-methanesulfonyl-13-methoxy-5-[4-(^2H3)methyl-1-methyl-1H-1,2,3-triazol-5-yl]-3,8,12-triazatricyclo[7.4.0.0^2,^7]trideca-1(13),2(7),3,5,9,11-hexaene] the IC50 was < 1500 nM.

With `Cc1nnn(C)c1-c1cnc2c3ccc(C(C)O)nc3n([C@H](c3ccccc3)C3CCOCC3)c2c1` (stereo partly drawn) [Example 173, 1-[5-(Dimethyl-1H-1,2,3-triazol-5-yl)-8-[(S)-oxan-4-yl(phenyl)methyl]-3,8,10-triazatricyclo[7.4.0.0^2,^7]trideca-1(9),2(7),3,5,10,12-hexaen-11-yl]ethan-1-ol] the IC50 was < 10 nM.

For `Cc1nnn(C)c1-c1cnc2c3cnc(Cl)cc3n(C(c3ncccc3F)C3CCOCC3)c2c1` (stereo not drawn) [Example 316], the IC50 was < 10 nM.

In the case of `[2H]C([2H])([2H])c1nnn(C)c1-c1cnc2c3c(OCC(F)(F)F)cncc3n([C@H](c3ccccc3)C3CCOCC3)c2c1` [Example 301, 5-[4-(^2H3)Methyl-1-methyl-1H-1,2,3-triazol-5-yl]-8-[(S)-oxan-4-yl(phenyl)methyl]-13-(2,2,2-trifluoroethoxy)-3,8,11-triazatricyclo[7.4.0.0^2,^7]trideca-1(9),2(7),3,5,10,12-hexaene], the IC50 is reported as < 1 nM.

In the case of `COc1nnn(C)c1-c1cnc2c3ccc(N4CCN(C)CC4)nc3n([C@H](c3ccccc3F)C3CCOCC3)c2c1` [Example 254, 8-[(S)-(2-Fluorophenyl)(oxan-4-yl)methyl]-5-(4-methoxy-1-methyl-1H-1,2,3-triazol-5-yl)-11-(4-methylpiperazin-1-yl)-3,8,10-triazatricyclo[7.4.0.0^2,^7]trideca-1(13),2(7),3,5,9,11-hexaene], the IC50 is reported as < 1 nM.

`[2H]C([2H])([2H])c1nnn(C)c1-c1cnc2c3ccc(N4CC(=O)NC(=O)C4)nc3n([C@H](c3ccccc3)C3CCOCC3)c2c1` [Example 212, 4-{5-[4-(^2H3)Methyl-1-methyl-1H-1,2,3-triazol-5-yl]-8-[(S)-oxan-4-yl(phenyl)methyl]-3,8,10-triazatricyclo[7.4.0.0^2,^7]trideca-1(9),2(7),3,5,10,12-hexaen-11-yl}piperazine-2,6-dione] was tested, and the IC50 was < 10 nM.

From patent US9725449B2, “Tricyclic compounds as anticancer agents” (BRISTOL-MYERS SQUIBB COMPANY, priority 2015, dated 2017)
